Assay results reported in patent US20190125712A1, “COMPOUND FOR ENHANCING ACTIVITY OF ANTIBIOTIC COMPOSITIONS AND OVERCOMING DRUG RESISTANCE” (SHOOLINI UNIVERSITY OF BIOTECHNOLOGY AND MANAGEMENT SCIENCES, priority 2015, published 2019).
Converted amounts (≈) assume the structure as drawn. Read-outs that look alike come from different tables or passages of the source. Peptide text beside a SMILES is read from it. * marks the point of attachment. βNA = c1ccc2cc(N*)ccc2c1

Key:
[1] = system: K. pneumonia Strain 52145 (Drug sensitive or control); assay: MIC, ethyl gallate as activity enhancer of antibiotics, drug sensitive K. pneumonia; type: cell-based, Klebsiella pneumonia; conditions: for MIC: Klebsiella pneumoniae; for MIC Antibiotic + ethyl gallate: combination with ethyl gallate; for Minimum Inhibitory Concentration (MIC): group C: antibiotic + Ethyl gallate 1000 μg/ml; for Fold decrease in antibiotic concentration: on addition of ethyl gallate
Procedure: (§1) This was carried out to assess the potential of the compound to enhance antimicrobial activity and overcome antibacterial resistance.
(§2) The resistant & sensitive control strains of K. pneumonia were procured from Dr. Enrique Llobet, CIBERES, Bunyola, Spain, Dr. Mazzariol of Verona University, Italy and one sensitive control strain were procured from IMTECH, Chandigarh (Table-2). Pseudomonas aeruginosa control cultures (Sensitive & Resistant) were procured from Dr. Thilo Kohler, University of Geneva, and Department of Microbiology and Molecular Medicine Geneve, Switzerland and one sensitive control strain were procured from IMTECH, Chandigarh (Table-3).

[2] = system: K. pneumonia 1740 knockout (Drug resistant); type: cell-based, Klebsiella pneumonia; conditions: for MIC Antibiotic + ethyl gallate: combination with ethyl gallate; for MIC: group C: antibiotic + Ethyl gallate 1000 μg/ml, strain 1740 knockout; for Fold decrease in antibiotic concentration: on addition of ethyl gallate
Procedure: as §1, §2

[3] = system: P. aeruginosa Strain MTCC-471 (Drug sensitive or control); assay: MIC, ethyl gallate as activity enhancer of antibiotics, drug sensitive P. aeruginosa; type: cell-based, Pseudomonas aeruginosa; conditions: for MIC: Pseudomonas aeruginosa, MTCC471, agent alone (group A ethyl gallate alone, group B antibiotics alone), read-out: Minimum Inhibitory Concentration (MIC); for MIC / Minimum Inhibitory Concentration (MIC): strain MTCC-471; for MIC Antibiotic + ethyl gallate: combination with ethyl gallate; for Minimum Inhibitory Concentration (MIC): group C: antibiotic + Ethyl gallate 1000 μg/ml; for Fold decrease in antibiotic concentration: on addition of ethyl gallate
Procedure: as §1, §2

[4] = system: P. aeruginosa PS11 (Drug resistant); assay: MIC, ethyl gallate as activity enhancer of antibiotics, drug resistant P. aeruginosa; type: cell-based, Pseudomonas aeruginosa; conditions: for MIC: strain PS11; for MIC Antibiotic + ethyl gallate: combination with ethyl gallate; for Fold decrease in antibiotic concentration: on addition of ethyl gallate
Procedure: as §1
K. pneumonia isolate was collected from Gian Sagar medical college, Patiala and characterized in Immuno-parasitoloy Lab, Shoolini University, Solan for multidrug resistance. P. aeruginosa drug resistant strain was collected from Gian Sagar medical college, Patiala and characterized in Immunoparasitoloy Lab, Shoolini University, Solan.

[5] = Solubility of the extracted compound; type: physicochemical; conditions: compound extracted from T. chebula
Procedure: Then column chromatography was performed on silica gel to extract the compound. 6 fractions for T. chebula plant were obtained by column chromatography. All fractions of T. chebula were subjected for their synergistic activity. The fraction showing synergistic activity was then characterized to know the physical properties of bioactive molecule and the molecular weight of bioactive molecule was determined by LCMS and the structure was elucidated by NMR.

Pseudomonas aeruginosa = conditions: against Pseudomonas aeruginosa; Barrett J F (2001); cited from earlier work
[6] = Table 4 (K. pneumonia, both strains), agent alone, read-out: MIC
[7] = agent alone (group A ethyl gallate alone, group B antibiotics alone), strain 52145, read-out: Minimum Inhibitory Concentration (MIC)
[8] = Sensitive Strain, K. pneumonia 52145
[9] = Resistant Strain, K. pneumonia 1740 knockout
[10] = Sensitive Strain, P. aeruginosa MTCC-471
[11] = Pseudomonas aeruginosa, agent alone (group A ethyl gallate alone, group B antibiotics alone), read-out: MIC
[12] = Resistant Strain, P. aeruginosa PS11
[13] = group C: antibiotic + Ethyl gallate 1000 μg/ml

For `O=C(N[C@H](CO)[C@H](O)c1ccc([N+](=O)[O-])cc1)C(Cl)Cl` [Chloramphenicol], the MIC [1, 6] was 2 µg/mL, the MIC [1, 7] was 2 µg/mL and the “MIC Antibiotic Alone” value [1, 8] was 2.000. For the same molecule, the “MIC Antibiotic + ethyl gallate” value [1, 8] was 1.000, the “Minimum Inhibitory Concentration (MIC)” value ([1]; strain 52145) was 1.000 µg/mL and the “Fold decrease in antibiotic concentration” value (“Fold decrease” for short) [1, 8] was 2 fold. The MIC Antibiotic Alone [2, 9] was 2 µg/mL (≈ 6.19 µM), the MIC Antibiotic + ethyl gallate [2, 9] was 0.5 µg/mL and the MIC [2] was 0.500 µg/mL. The “Fold decrease” value [2, 9] was 4 fold, the MIC [3] was 1 µg/mL and the MIC Antibiotic Alone [3, 10] was 1 µg/mL. The MIC Antibiotic + ethyl gallate [3, 10] was 0.05 µg/mL, the “Minimum Inhibitory Concentration (MIC)” value [3] was 0.050 µg/mL and the “Fold decrease” value [3, 10] was 20 fold. For the same molecule, the MIC [4, 11] was 2 µg/mL, the MIC Antibiotic Alone [4, 12] was 2 µg/mL and the MIC Antibiotic + ethyl gallate [4, 12] was 1 µg/mL. For the same molecule, the MIC [4, 13] was 1.00 µg/mL and the “Fold decrease” value [4, 12] was 2 fold.
For `O=C(O)c1cn(C2CC2)c2cc(N3CCNCC3)c(F)cc2c1=O` [Ciprofloxacin], the MIC [1, 7] was 0.06 µg/mL, the “MIC Antibiotic Alone” value [1, 8] was 0.060 and the “MIC Antibiotic + ethyl gallate” value [1, 8] was 0.003. The “Minimum Inhibitory Concentration (MIC)” value ([1]; strain 52145) was 0.003 µg/mL, the MIC Antibiotic + ethyl gallate [2, 9] was 0.003 µg/mL and the MIC [2] was 0.003 µg/mL. The MIC Antibiotic + ethyl gallate [3, 10] was 0.06 µg/mL, the “Minimum Inhibitory Concentration (MIC)” value [3] was 0.060 µg/mL and the MIC [4, 11] was 2 µg/mL. For the same molecule, the MIC Antibiotic Alone [4, 12] was 2 µg/mL, the MIC Antibiotic + ethyl gallate [4, 12] was 1 µg/mL and the MIC [4, 13] was 1.00 µg/mL.
For `CCOC(=O)c1cc(O)c(O)c(O)c1` [Ethyl gallate, ethyl gallate], the MIC [1, 6] was 2 µg/mL, the MIC [1, 7] was 2 µg/mL and the “MIC Ethyl gallate” value ([1]; Sensitive Strain, K. pneumonia 52145, ethyl gallate alone) was 2.000. It also gave an MIC Ethyl gallate ([2]; Resistant Strain, K. pneumonia 1740 knockout, ethyl gallate alone) of 2 µg/mL (≈ 10.1 µM), an MIC [3] of 0.06 µg/mL and an MIC Ethyl gallate ([3]; Sensitive Strain, P. aeruginosa MTCC-471, ethyl gallate alone) of 0.06 µg/mL. The MIC [4, 11] was 2 µg/mL, the MIC Ethyl gallate ([4]; Resistant Strain, P. aeruginosa PS11, ethyl gallate alone) was 2 µg/mL and the solubility [5] was “soluble in methanol and water”.
In the case of `N=C(N)NCCC[C@H](NC(=O)[C@@H](N)Cc1ccccc1)C(=O)Nc1ccc2ccccc2c1` [PAβN, L-phenylalanyl-L-arginyl-b naphthylamide] (H-Phe-Arg-βNA), the “potentiation of the activity of levofloxacin” value (Pseudomonas aeruginosa) is given as 8 fold.
In the case of `CN(C)[C@@H]1C(O)=C(C(N)=O)C(=O)[C@@]2(O)C(O)=C3C(=O)c4c(O)cccc4[C@@](C)(O)[C@H]3C[C@@H]12` [Tetracycline], the MIC [1, 6] is reported as 2 µg/mL, the MIC [1, 7] is reported as 2 µg/mL and the “MIC Antibiotic Alone” value [1, 8] is reported as 2.000. For the same molecule, the “MIC Antibiotic + ethyl gallate” value [1, 8] was 0.500, the “Minimum Inhibitory Concentration (MIC)” value ([1]; strain 52145) was 0.500 µg/mL and the “Fold decrease” value [1, 8] was 4 fold. The MIC Antibiotic Alone [2, 9] was 2 µg/mL (≈ 4.5 µM), the MIC Antibiotic + ethyl gallate [2, 9] was 0.5 µg/mL and the MIC [2] was 0.500 µg/mL. The “Fold decrease” value [2, 9] was 4 fold, the MIC [3] was 0.125 µg/mL and the MIC Antibiotic Alone [3, 10] was 0.125 µg/mL. For the same molecule, the MIC Antibiotic + ethyl gallate [3, 10] was 0.06 µg/mL, the “Minimum Inhibitory Concentration (MIC)” value [3] was 0.060 µg/mL and the “Fold decrease” value [3, 10] was 2 fold. It also gave an MIC [4, 11] of 2 µg/mL, an MIC Antibiotic Alone [4, 12] of 2 µg/mL and an MIC Antibiotic + ethyl gallate [4, 12] of 0.5 µg/mL. For the same molecule, the MIC [4, 13] was 0.50 µg/mL and the “Fold decrease” value [4, 12] was 4 fold.
